Assay results from patent US4073903A, “3-Desacetoxymethyl-3- 5'(1-methyltetrazolyl)thio!methyl-7- 1-(4-nitr oimidazolyl)acetyl!aminocephalosporanic acid” (Pierrel S.p.A., priority 1975, dated 1978).
≈ marks a conversion by molar mass, not a printed value. Where a name gives a salt, the structure may show the parent alone. Read-outs that look alike come from different tables or passages of the source.

Tests used:
Solubility = assay type: physicochemical
Stability as a solid = assay type: physicochemical
Escherichia coli [1] = test: Treatment of mice systemically infected with Escherichia coli (Table V); settings: in Mus musculus, 168 h, read-out: ED50 per treatment
[2] = tested on: systemically infected mice; test: In vivo activity in systemically infected mice (overall statement); design: species or system Charles River CD 1 female mice; settings: treatment of systemically infected mice
Streptococcus bovis = test: MIC, twofold serial broth dilution (Table I); assay type: cell-based; settings: Streptococcus equinus, ATCC15351; strain ATCC 15351; Todd Hewitt Broth; 37° C, 24 hours; read-out: Minimum inhibitory concentration (MIC)
Brucella suis = test: microbe, parasite or virus in culture; assay type: cell-based; settings: 24 h, read-out: Minimum inhibitory concentration (MIC)
[3] = tested on: Enterobacter liquefaciens; test: MIC, twofold serial broth dilution (Table I); assay type: cell-based; settings: strain ISM 65/33, Tryptose Phosphate Broth, 37° C, 24 hours, read-out: Minimum inhibitory concentration (MIC)
Staphylococcus aureus = test: MIC, twofold serial broth dilution (Table I); assay type: cell-based; settings: 24 h, 37° C, read-out: Minimum inhibitory concentration (MIC)
Shigella dysenteriae = test: MIC, twofold serial broth dilution (Table I); assay type: cell-based; settings: 24 h, read-out: Minimum inhibitory concentration (MIC)
Arizona sp. = test: MIC, twofold serial broth dilution (Table I); assay type: cell-based; settings: strain ISM 67/9; Tryptose Phosphate Broth; 37° C, 24 hours; read-out: Minimum inhibitory concentration (MIC)
Citrobacter freundii = test: MIC, twofold serial broth dilution (Table I); assay type: cell-based
Serratia marcescens = test: MIC, twofold serial broth dilution (Table I); assay type: cell-based; settings: strain ISM 68/189, Mueller Hinton Broth, 37° C, 24 hours, read-out: Minimum inhibitory concentration (MIC)
Proteus morganii = test: MIC, twofold serial broth dilution (Table I); assay type: cell-based; settings: Morganella morganii; strain ISM-LRP 18; Mueller Hinton Broth; 37° C, 24 hours; read-out: Minimum inhibitory concentration (MIC)
Escherichia coli [4] = test: MIC against clinical isolates, broth dilution test (Table III); settings: for MIC: Escherichia coli, 24 h
Streptococcus uberis = test: MIC, twofold serial broth dilution (Table I); assay type: cell-based; settings: ATCC9927, strain ATCC 9927, Todd Hewitt Broth, 37° C, 24 hours, read-out: Minimum inhibitory concentration (MIC)
Salmonella heidelberg = test: MIC against Ampicillin-resistant clinical isolates, broth dilution test (Table IV); settings: Salmonella enterica, 24 h, read-out: Minimun inhibitory concentration (MIC)
[5] = tested on: wide spectrum of microorganisms both Gram-positive and Gram-negative; test: In vitro antimicrobial activity (overall statement); assay type: cell-based
Streptococcus faecalis = test: MIC, twofold serial broth dilution (Table I); assay type: cell-based; settings: Enterococcus faecalis; strain ISM 66/54; Tryptose Phosphate Broth; 37° C, 24 hours; read-out: Minimum inhibitory concentration (MIC)
Proteus rettgeri = test: MIC, twofold serial broth dilution (Table I); assay type: cell-based; settings: Providencia rettgeri; strain ISM-LRP 21; Mueller Hinton Broth; 37° C, 24 hours; read-out: Minimum inhibitory concentration (MIC)
Streptococcus mitis = test: MIC, twofold serial broth dilution (Table I); assay type: cell-based; settings: ATCC9895, strain ATCC 9895 Ty V, Todd Hewitt Broth, 37° C, 24 hours, read-out: Minimum inhibitory concentration (MIC)
Pasteurella multocida = test: MIC, twofold serial broth dilution (Table I); assay type: cell-based; settings: ATCC6588, strain ATCC 6588, Tryptose Broth, 37° C, 24 hours, read-out: Minimum inhibitory concentration (MIC)
Enterobacter cloacae = test: MIC, twofold serial broth dilution (Table I); assay type: cell-based; settings: strain ISM 71/32, Tryptose Phosphate Broth, 37° C, 24 hours, read-out: Minimum inhibitory concentration (MIC)
Salmonella essen = test: MIC against Ampicillin-resistant clinical isolates, broth dilution test (Table IV); settings: Salmonella enterica, 24 h, read-out: Minimun inhibitory concentration (MIC)
Pseudomonas aeruginosa = test: MIC, twofold serial broth dilution (Table I); assay type: cell-based; settings: strain ISM-LRP 9, Tryptose Phosphate Broth, 37° C, 24 hours, read-out: Minimum inhibitory concentration (MIC)
Proteus mirabilis = test: MIC, twofold serial broth dilution (Table I); assay type: cell-based; settings: 37° C, 24 hours, read-out: Minimum inhibitory concentration (MIC)
Klebsiella pneumoniae [6] = settings: in Mus musculus, 168 h, read-out: ED50 per treatment
Escherichia coli [7] = test: MIC, twofold serial broth dilution (Table I); assay type: cell-based; settings: ATCC19138, strain ATCC 19138 0 group 6, Tryptose Phosphate Broth, 37° C, 24 hours, read-out: Minimum inhibitory concentration (MIC)
Salmonella typhi = test: MIC, twofold serial broth dilution (Table I); assay type: cell-based; settings: Salmonella enterica, 24 h, read-out: Minimum inhibitory concentration (MIC)
Klebsiella pneumoniae [8] = test: MIC, twofold serial broth dilution (Table I); assay type: cell-based; settings: strain ISM 68/67' 370 V', Tryptose Phosphate Broth, 37° C, 24 hours, read-out: Minimum inhibitory concentration (MIC)
Salmonella wien = test: MIC against Ampicillin-resistant clinical isolates, broth dilution test (Table IV); settings: Salmonella enterica, 24 h
Klebsiella pneumoniae [9] = test: MIC against clinical isolates, broth dilution test (Table II); settings: for MIC: Klebsiella pneumoniae, 24 h
Brucella abortus = test: microbe, parasite or virus in culture; assay type: cell-based; settings: 24 h, read-out: Minimum inhibitory concentration (MIC)
Shigella sonnei = test: MIC, twofold serial broth dilution (Table I); assay type: cell-based; settings: strain ISM-LRP 5, Tryptose Phosphate Broth, 37° C, 24 hours, read-out: Minimum inhibitory concentration (MIC)
Text: (§1) In Table I the minimum inhibitory concentrations (MIC) of P-75123 against a variety of Gram-positive and Gram-negative bacteria are listed.

Shigella flexneri = test: MIC, twofold serial broth dilution (Table I); assay type: cell-based; settings: strain ISM-LRP 40, Tryptose Phosphate Broth, 37° C, 24 hours, read-out: Minimum inhibitory concentration (MIC)
Text: as §1

Diplococcus pneumoniae = test: MIC, twofold serial broth dilution (Table I); assay type: cell-based; settings: Streptococcus pneumoniae; strain Ty XXVII-LRP 53; Todd Hewitt Broth; 37° C, 24 hours; read-out: Minimum inhibitory concentration (MIC)
Text: as §1

[10] = read-out: Minimum inhibitory concentration (MIC)

## Cn1nnnc1SCC1=C(C(=O)O)N2C(=O)C(NC(=O)Cn3cnc([N+](=O)[O-])c3)C2SC1 (stereo not shown) [sodium salt]
Solubility; sodium salt, water
  solubility: ~500 mg/mL
Stability as a solid
  Stability: stable as a solid

## Cn1nnnc1SCC1=C(C(=O)O)N2C(=O)C(NC(=O)Cn3cnc([N+](=O)[O-])c3)C2SC1 (stereo not shown) [P-75123, 7-1-(1H-4-nitroimidazolyl)acetyl!amino-3-5-(1H-1-methyltetrazolyl)thio!methyl-3-cephem-4-carboxylic acid]
Escherichia coli [1]
  ED50: 35 mg/kg
[2]
  activity "in vivo": very good activity
Streptococcus bovis
  MIC: 0.049 µg/mL (≈ 0.102 µM)
Brucella suis
  MIC: 12.5 µg/mL (≈ 26 µM)
[3]
  MIC: 100 µg/mL (≈ 208 µM)
Solubility; crystals, dimethylsulfoxide
  Solubility in dimethylsulfoxide: soluble in dimethylsulfoxide
Solubility; crystals, water
  Solubility in water: practically insoluble in water
Staphylococcus aureus; strain ATTC 653P, Tryptose Phosphate Broth
  MIC: 0.195 µg/mL (≈ 0.405 µM)
Staphylococcus aureus; strain ISM 72/10, Tryptose Phosphate Broth
  MIC: 0.78 µg/mL (≈ 1.62 µM)
Shigella dysenteriae
  MIC: 0.78 µg/mL (≈ 1.62 µM)
Arizona sp.
  MIC: 0.78 µg/mL (≈ 1.62 µM)
Citrobacter freundii; 24 h, read-out: Minimum inhibitory concentration (MIC), strain ISM 65/74, Tryptose Phosphate Broth, 37° C
  MIC: 1.56 µg/mL (≈ 3.24 µM)
Citrobacter freundii; strain ISM 69/30, Tryptose Phosphate Broth, 37° C, 24 hours, read-out: Minimum inhibitory concentration (MIC)
  MIC: 0.78 µg/mL (≈ 1.62 µM)
Serratia marcescens
  MIC: 100 µg/mL (≈ 208 µM)
Proteus morganii
  MIC: 50 µg/mL (≈ 104 µM)
Escherichia coli [4]; [10]
  MIC: 1.56 µg/mL (≈ 3.24 µM)
Escherichia coli [4]; read-out: Minimum inhibitory concentration (MIC), clinical isolate LRP 87
  MIC: 3.12 µg/mL (≈ 6.48 µM)
Escherichia coli [4]; read-out: Minimum inhibitory concentration (MIC), clinical isolate LRP 110
  MIC: 0.78 µg/mL (≈ 1.62 µM)
Escherichia coli [4]; read-out: Minimum inhibitory concentration (MIC), clinical isolate LRP 143
  MIC: 0.78 µg/mL (≈ 1.62 µM)
Escherichia coli [4]; read-out: Minimum inhibitory concentration (MIC), clinical isolate LRP 152
  MIC: 50 µg/mL (≈ 104 µM)
Escherichia coli [4]; read-out: Minimum inhibitory concentration (MIC), clinical isolate LRP 159
  MIC: 0.78 µg/mL (≈ 1.62 µM)
Escherichia coli [4]; clinical isolate LRP 96
  Minimum inhibitory concentration (MIC): 1.56 µg/mL (≈ 3.24 µM)
Escherichia coli [4]; clinical isolate LRP 150
  Minimum inhibitory concentration (MIC): 1.56 µg/mL (≈ 3.24 µM)
Escherichia coli [4]; clinical isolate LRP 151
  Minimum inhibitory concentration (MIC): 1.56 µg/mL (≈ 3.24 µM)
Escherichia coli [4]; clinical isolate LRP 154
  Minimum inhibitory concentration (MIC): 1.56 µg/mL (≈ 3.24 µM)
Escherichia coli [4]; clinical isolate LRP 155
  Minimum inhibitory concentration (MIC): 1.56 µg/mL (≈ 3.24 µM)
Escherichia coli [4]; clinical isolate LRP 156
  Minimum inhibitory concentration (MIC): 1.56 µg/mL (≈ 3.24 µM)
Escherichia coli [4]; clinical isolate LRP 158
  Minimum inhibitory concentration (MIC): 1.56 µg/mL (≈ 3.24 µM)
Escherichia coli [4]; clinical isolate LRP 163
  Minimum inhibitory concentration (MIC): 1.56 µg/mL (≈ 3.24 µM)
Streptococcus uberis
  MIC: 0.097 µg/mL (≈ 0.201 µM)
Salmonella heidelberg
  MIC: 1.56 µg/mL (≈ 3.24 µM)
[5]
  "in vitro" antimicrobial activity: high antimicrobial activity
Streptococcus faecalis
  MIC: 100 µg/mL (≈ 208 µM)
Proteus rettgeri
  MIC: 25 µg/mL (≈ 51.9 µM)
Streptococcus mitis
  MIC: 0.195 µg/mL (≈ 0.405 µM)
Pasteurella multocida
  MIC: 0.39 µg/mL (≈ 0.81 µM)
Enterobacter cloacae
  MIC: > 100 µg/mL
Salmonella essen
  MIC: 1.56 µg/mL (≈ 3.24 µM)
Pseudomonas aeruginosa
  MIC: > 100 µg/mL
Proteus mirabilis; ATCC10005, strain ATCC 10005, Mueller Hinton Broth
  MIC: 3.12 µg/mL (≈ 6.48 µM)
Proteus mirabilis; strain ISM 66/53, Mueller Hinton Broth
  MIC: 3.12 µg/mL (≈ 6.48 µM)
Klebsiella pneumoniae [6]
  ED50: 49 mg/kg
Escherichia coli [7]
  MIC: 0.78 µg/mL (≈ 1.62 µM)
Salmonella typhi
  MIC: 0.78 µg/mL (≈ 1.62 µM)
Klebsiella pneumoniae [8]
  MIC: 0.78 µg/mL (≈ 1.62 µM)
Salmonella wien; read-out: Minimun inhibitory concentration (MIC), Ampicillin-resistant clinical isolate LRP 138
  MIC: 3.12 µg/mL (≈ 6.48 µM)
Salmonella wien; read-out: Minimun inhibitory concentration (MIC), Ampicillin-resistant clinical isolate LRP 140
  MIC: 6.25 µg/mL (≈ 13 µM)
Salmonella wien; read-out: Minimun inhibitory concentration (MIC), Ampicillin-resistant clinical isolate LRP 141
  MIC: 6.25 µg/mL (≈ 13 µM)
Klebsiella pneumoniae [9]; [10]
  MIC: 1.56 µg/mL (≈ 3.24 µM)
Klebsiella pneumoniae [9]; read-out: Minimum inhibitory concentration (MIC), clinical isolate LRP 129
  MIC: 0.39 µg/mL (≈ 0.81 µM)
Klebsiella pneumoniae [9]; read-out: Minimum inhibitory concentration (MIC), clinical isolate LRP 130
  MIC: 6.25 µg/mL (≈ 13 µM)
Klebsiella pneumoniae [9]; read-out: Minimum inhibitory concentration (MIC), clinical isolate LRP 131
  MIC: 3.12 µg/mL (≈ 6.48 µM)
Klebsiella pneumoniae [9]; read-out: Minimum inhibitory concentration (MIC), clinical isolate LRP 132
  MIC: 0.39 µg/mL (≈ 0.81 µM)
Klebsiella pneumoniae [9]; read-out: Minimum inhibitory concentration (MIC), clinical isolate LRP 133
  MIC: 0.78 µg/mL (≈ 1.62 µM)
Klebsiella pneumoniae [9]; read-out: Minimum inhibitory concentration (MIC), clinical isolate LRP 135
  MIC: 3.12 µg/mL (≈ 6.48 µM)
Klebsiella pneumoniae [9]; read-out: Minimum inhibitory concentration (MIC), clinical isolate LRP 136
  MIC: 3.12 µg/mL (≈ 6.48 µM)
Klebsiella pneumoniae [9]; read-out: Minimum inhibitory concentration (MIC), clinical isolate LRP 137
  MIC: 0.78 µg/mL (≈ 1.62 µM)
Klebsiella pneumoniae [9]; clinical isolate LRP 134
  Minimum inhibitory concentration (MIC): 1.56 µg/mL (≈ 3.24 µM)
Brucella abortus
  MIC: 25 µg/mL (≈ 51.9 µM)
Shigella sonnei
  MIC: 1.56 µg/mL (≈ 3.24 µM)
Shigella flexneri
  MIC: 0.78 µg/mL (≈ 1.62 µM)
Diplococcus pneumoniae
  MIC: 0.097 µg/mL (≈ 0.201 µM)
